Holding throughout (assay): NCI anticancer screen, dose series, 48 h
Test [1] concerns A549 NSCLC.
The test system of test [2] is CAKI-1 renal.
In test [3] the test system is IGROV1 ovarian.
The test system of test [4] is KM12 colon.
Test [5] relates to M14 melanoma.
The subject of test [6] is OVCAR-3 ovarian.
Test [7] has as its system OVCAR-5 ovarian.
In test [8] the test system is SF-539 CNS.
In test [9] the test system is UACC-62 melanoma.
Test [10] deals with UO-31 renal.

This note sets out measurements from PubChem BioAssay (NCI).

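Compound exposure: 48 hours, 5 concentrations, 96-well plates. TGI marks complete inhibition of growth.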

With `Cc1cc(N(CCC#N)CCC#N)ccc1/C=C1N=C(/C=C/c2ccccc2)N(c2ccc(S(N)(=O)=O)cc2)C\1=O`, the TGI in [1], in [2], in test [3], in test [4], in test [5] and in test [6] was more than 100 µM each time. The TGI in [7], in test [8], in test [9] and in [10] was more than 100 µM throughout.
Turning to `COc1ccc(OC)c(N=Cc2cc(OC)c(OC)c(OC)c2)c1`, the TGI is more than 100 µM in [1]; more than 100 µM in [2]; more than 100 µM in test [3]; more than 100 µM in test [4]; more than 100 µM in [5]; more than 40.3 µM in test [6]. Besides, the TGI in [7], in test [8], in test [9] and in test [10] was more than 100 µM in each case.
Consider `CCC(=O)N(c1ccccc1)C(C)CN1CCC(O)(c2cccc(C(F)(F)F)c2)CC1` (stereo not given), for which the TGI was more than 100 µM in test [1]; more than 100 µM in [2]; more than 100 µM in [3]; more than 100 µM in test [4]; 33.4 µM in test [5]; more than 100 µM in test [6]. Moreover, the TGI in test [7] worked out at 55.4 µM; in test [8] it was 49 µM; in test [9], 49.1 µM; in test [10], 72.6 µM.
On to `COc1ccc(-c2[nH]c(-c3ccc(OC)cc3)c(-c3ccccn3)c2-c2ccccn2)cc1`, for which the TGI in test [1], in [2], in test [3], in test [4], in [5] and in test [6] was more than 100 µM throughout. The TGI in test [7], in test [8], in test [9] and in test [10] was more than 100 µM throughout.
